“Also recorded” adds a separate entry of the source. Where two headings read alike, the source gives them in different places.
Experiments:
PSMA = target: T1, PSMA (Homo sapiens, UniProt Q04609); assay type: binding
T1 construct: endogenous in cells; host or cells: LNCaP cells
Description: PSMA relative affinity assay. LNCaP cells are seeded in 12-well Corning Cell-BIND plates and allowed to form adherent monolayers overnight in RPMI/HIFCS. Spent incubation media is replaced with RPMI supplemented with 10% HIFCS and containing a standard PSMA binding ligand, such as 100 nM of 3H-PMPA or a competing compound, such as EC0652, Re-EC652, or ^99mTc-EC0652, in the absence and presence of increasing concentrations of test compound, such as unlabeled PMPA, or a compound described herein, such as EC1169 or EC1568, a negative control intermediate lacking a PSMA binding ligand which is used as a negative control. Cells are incubated for 1 h at 37° C. and then rinsed three times with 0.5 mL of PBS. Five hundred microliters of 1% sodium dodecylsulfate in PBS are added to each well; after 5 min, cell lysates are collected, transferred to individual tubes or to vials containing 5 mL of scintillation cocktail, and then counted for radioactivity. Cells exposed to only the standard PSMA binding ligand, such as 3H-PMPA, or competing compound, such as ^99mTc-EC0652, in FFRPMI (no competitor) are designated as negative controls, whereas cells exposed to the standard PSMA binding ligand, such as 3H-PMPA, plus 1 mM unlabeled PMPA or competing compound, such as ^99mTc-EC0652 plus Re-EC0652, serve as positive controls. Disintegrations per minute (DPMs) measured in the latter samples (representing nonspecific binding of label) are subtracted from the DPM values from all samples. Relative affinities are defined as the inverse molar ratio of compound required to displace 50% of the standard PSMA binding ligand, such as ^3H-PMPA, or the competing compound, such as ^99mTc-EC0652, bound to PSMA on LNCaP cells, and the relative affinity of the standard PSMA binding ligand, such as PMPA, or the competing compound, such as Re-EC0652, for PSMA is set to 1.

[1] = assay type: in vivo; details: rats, i.v., 0.33 and 0.51 μmol/kg, BIW, 2 weeks
LNCaP cells = details: human
Description: LNCaP cells are seeded in 24-well Corning Cell-BIND plates and allowed to form nearly confluent monolayers overnight in RPMI/HIFCS. Thirty minutes prior to the addition of test compound, such as a compound described herein, spent medium is aspirated from all wells and replaced with fresh RPMI. Following one rinse with 1 mL of fresh RPMI/HIFCS, each well receives 1 mL of media containing increasing concentrations of test compound (four wells per sample). Test compound treated cells are pulsed for 2 h at 37° C., rinsed four times with 0.5 mL of media, and then chased in 1 mL of fresh media up to 70 h. Spent media is aspirated from all wells and replaced with fresh media containing 5 μCi/mL ^3H-thymidine. Following a further 4 h 37° C. incubation, cells are washed three times with 0.5 mL of PBS and then treated with 0.5 mL of ice-cold 5% trichloroacetic acid per well. After 15 min, the trichloroacetic acid is aspirated and the cells are solubilized by the addition of 0.5 mL of 0.25 N sodium hydroxide for 15 min. Four hundred and fifty microliters of each solubilized sample is transferred to scintillation vials containing 3 mL of Ecolume scintillation cocktail and then counted in a liquid scintillation counter. Final tabulated results are expressed as the percentage of ^3H-thymidine incorporation relative to untreated controls.

[2] = Gross toxicity (body weight change) in LNCaP tumor-bearing mice
Description: Four to seven week-old male nu/nu mice (Harlan Sprague Dawley. Inc., Indianapolis, Ind.) are maintained on a standard 12 h light-dark cycle and fed ad libitum with rodent diet #2918 (Harlan Teklad, Madison, Wis.) for the duration of the experiment. LNCaP cells are grown in RPMI in 10% HIFCS at 37° C. in a 5% CO2/95% air-humidified atmosphere, harvested and resuspended on ice in matrigel solution (50% RPMI+50% matrigel high concentration. BD#354248) to a final concentration of 1×10^6 cells/50 μL. Cell solution and injection needles (28 gauge) are kept on ice prior to injection and 50 μL of the cell solution injected in the subcutis of the dorsal medial area. Mice are divided into groups of five, seven, or nine, and freshly prepared test compound solutions are injected through the lateral tail vein under sterile conditions in a volume of 200 μL of phosphate-buffered saline (PBS). […] Growth of each s.c. tumor is followed by measuring the tumor three times per week during treatment and twice per week thereafter, until a volume of 1500 mm^3 is reached. Tumors are measured in two perpendicular directions using Vernier calipers, and their volumes are calculated as 0.5×L×W^2, where L=measurement of longest axis in mm and W=measurement of axis perpendicular to L in mm. As a general measure of gross toxicity, changes in body weights are determined on the same schedule as tumor volume measurements. Maximum % weight loss on any given day due to treatment is determined for each mouse. Survival of animals is monitored daily. Animals that are moribund (or unable to reach food or water) are euthanized by CO2 asphyxiation.

[3] = tested on: PSMA-positive LNCaP human xenografts; assay: Activity in vivo against PSMA+ tumor implanted in mice; details: for tumor growth in vivo compared to untreated animals / cures (cured/tested animals; no tumor growth during entire observation period): 2 μmol/kg, LNCaP xenografts; for tumor growth in vivo compared to untreated animals: TIW for 2 weeks, beginning on day 21 post tumor implant; for cures (cured/tested animals; no tumor growth during entire observation period): TIW
Source text: Survival of animals is monitored daily.

[4] = PMPA = 1.0 (normalized), in 10% serum/FDRPMI
[5] = 10 mg/kg, BIW, 2 weeks, MTD, LNCaP-tumor bearing mice

T1 sequence (Q04609 whole entry): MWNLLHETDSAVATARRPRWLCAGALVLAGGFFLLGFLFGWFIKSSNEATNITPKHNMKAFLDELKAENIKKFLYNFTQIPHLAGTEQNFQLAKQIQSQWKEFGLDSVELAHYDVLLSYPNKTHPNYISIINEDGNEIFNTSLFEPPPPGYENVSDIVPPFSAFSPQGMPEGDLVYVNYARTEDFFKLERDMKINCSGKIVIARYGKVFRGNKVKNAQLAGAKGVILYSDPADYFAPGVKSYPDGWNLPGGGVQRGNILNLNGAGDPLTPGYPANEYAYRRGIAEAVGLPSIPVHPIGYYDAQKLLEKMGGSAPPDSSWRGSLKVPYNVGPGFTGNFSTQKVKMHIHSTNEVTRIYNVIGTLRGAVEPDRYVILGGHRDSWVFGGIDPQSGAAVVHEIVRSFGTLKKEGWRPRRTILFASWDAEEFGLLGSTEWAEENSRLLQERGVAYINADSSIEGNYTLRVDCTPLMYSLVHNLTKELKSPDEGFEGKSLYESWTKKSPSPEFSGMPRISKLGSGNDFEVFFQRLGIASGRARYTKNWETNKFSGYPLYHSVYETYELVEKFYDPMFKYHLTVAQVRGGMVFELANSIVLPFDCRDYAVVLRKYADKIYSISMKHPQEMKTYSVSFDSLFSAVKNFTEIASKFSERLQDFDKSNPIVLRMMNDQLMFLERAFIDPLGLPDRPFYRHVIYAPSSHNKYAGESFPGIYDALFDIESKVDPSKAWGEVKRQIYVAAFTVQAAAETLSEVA

O=C(O)CC[C@H](NC(=O)N[C@@H](CCC(=O)O)C(=O)O)C(=O)O [DUPA, reference compound]
relative affinity for PSMA (PSMA): 0.05 ×

O=C(O)CC[C@H](NC(=O)N[C@@H](CCCCNC(=O)Nc1ccc(CC(=O)N[C@@H](CC(=O)O)C(=O)N[C@@H](CC(=O)O)C(=O)N[C@@H](CS)C(=O)O)cc1)C(=O)O)C(=O)O [EC1067]
Relative PSMA Binding Affinity (fold over PMPA = 1.0) (PSMA): 30 fold | relative affinity for PSMA (PSMA; [4]): 30 ×

O=C(O)CC[C@H](NC(=O)N[C@@H](CCCCNC(=O)Nc1ccc(CC(=O)O)cc1)C(=O)O)C(=O)O [EC1080]
Relative PSMA Binding Affinity (fold over PMPA = 1.0) (PSMA): 6 fold | relative affinity for PSMA (PSMA; [4]): 6 ×

O=C(O)CC[C@H](NC(=O)N[C@@H](CCCCNC(=O)NCc1ccc(CC(=O)N[C@@H](CC(=O)O)C(=O)N[C@@H](CC(=O)O)C(=O)N[C@@H](CS)C(=O)O)cc1)C(=O)O)C(=O)O [EC1167]
Relative PSMA Binding Affinity (fold over PMPA = 1.0) (PSMA): 11 fold

O=C(O)CC[C@H](NC(=O)N[C@@H](CCCCNC(=O)NCc1ccc(CC(=O)N[C@@H](CC(=O)O)C(=O)N[C@@H](CC(=O)O)C(=O)NCC(=O)O)cc1)C(=O)O)C(=O)O [EC1168]
Relative PSMA Binding Affinity (fold over PMPA = 1.0) (PSMA): 17 fold | relative affinity for PSMA (PSMA; [4]): 17 ×

CCCC(=O)OCN(C(=O)[C@@H](NC(=O)[C@H]1CCCCN1C)C(C)CC)[C@H](C[C@@H](OC(C)=O)c1nc(C(=O)N[C@@H](Cc2ccc(O)cc2)C[C@H](C)C(=O)NNC(=O)OCCSSC[C@H](NC(=O)[C@H](CC(=O)O)NC(=O)[C@H](CC(=O)O)NC(=O)Cc2ccc(CNC(=O)NCCCC[C@H](NC(=O)N[C@@H](CCC(=O)O)C(=O)O)C(=O)O)cc2)C(=O)O)cs1)C(C)C (stereo partly shown) [EC1169]
hematological toxicity in red blood cells and white blood cells [1]: significantly lower than untreated controls | IC50 (LNCaP cells): 13 nM | gross animal toxicity (weight loss, major organ tissue degeneration) ([2]; 2 μmol/kg, TIW, 2 weeks): absence of weight loss or major organ tissue degeneration | gross toxicity compared to docetaxel ([2]; 2 μmol/kg, TIW, 2 weeks vs docetaxel 10 mg/kg, BIW, MTD): substantially less gross animal toxicity compared to docetaxel; also recorded: less toxic than docetaxel | gross animal toxicity (weight loss, major organ tissue degeneration) ([2]; 2 μmol/kg, TIW, 2 weeks, listed as EC169): do not exhibit gross animal toxicity

CCCC(=O)OCN(C(=O)[C@@H](NC(=O)[C@H]1CCCCN1C)C(C)CC)[C@H](C[C@@H](OC(C)=O)c1nc(C(=O)N[C@@H](Cc2ccc(O)cc2)C[C@H](C)C(=O)NNC(=O)OCCSSC[C@H](NC(=O)[C@@H](CC(=O)O)NC(=O)[C@@H](CC(=O)O)NC(=O)Cc2ccc(CNC(=O)NCCCC[C@H](NC(=O)N[C@@H](CCC(=O)O)C(=O)O)C(=O)O)cc2)C(=O)O)cs1)C(C)C (stereo partly shown) [EC1308]
Relative PSMA Binding Affinity (fold over PMPA = 1.0) (PSMA): 20 fold

CCCC(=O)OCN(C(=O)[C@@H](NC(=O)[C@H]1CCCCN1C)C(C)CC)[C@H](C[C@@H](OC(C)=O)c1nc(C(=O)N[C@@H](Cc2ccc(O)cc2)C[C@H](C)C(=O)NNC(=O)OCCSSC[C@H](NC(=O)[C@H](CC(=O)O)NC(=O)[C@H](CCCNC(=N)N)NC(=O)Cc2ccc(CNC(=O)NCCCC[C@H](NC(=O)N[C@@H](CCC(=O)O)C(=O)O)C(=O)O)cc2)C(=O)O)cs1)C(C)C (stereo partly shown) [EC1310]
Relative PSMA Binding Affinity (fold over PMPA = 1.0) (PSMA): 10 fold

CCCC(=O)OCN(C(=O)[C@@H](NC(=O)[C@H]1CCCCN1C)C(C)CC)[C@H](C[C@@H](OC(C)=O)c1nc(C(=O)N[C@@H](Cc2ccc(O)cc2)C[C@H](C)C(=O)NNC(=O)OCCSSC[C@H](NC(=O)[C@H](Cc2ccccc2)NC(=O)[C@H](CC(=O)O)NC(=O)NCCCC[C@H](NC(C)=O)C(=O)O)C(=O)O)cs1)C(C)C (stereo partly shown) [EC1568, reference compound]
Relative PSMA Binding Affinity (fold over PMPA = 1.0) (PSMA): 0 fold

CCCCOCN(C(=O)[C@@H](NC(=O)[C@H]1CCCCN1C)[C@@H](C)CC)[C@H](C[C@@H](OC(C)=O)c1nc(C(=O)N[C@@H](Cc2ccc(O)cc2)C[C@H](C)C(=O)NNC(=O)OCCSSC[C@H](NC(=O)[C@H](CC(=O)O)NC(=O)[C@H](CC(=O)O)NC(=O)Cc2ccc(CNC(=O)NCCCC[C@H](NC(=O)N[C@@H](CCC(=O)O)C(=O)O)C(=O)O)cc2)C(=O)O)cs1)C(C)C [EC1677]
tumor growth in vivo compared to untreated animals [3]: efficacious in decreasing tumor growth | cures (cured/tested animals; no tumor growth during entire observation period) ([3]; 2 weeks): 4/7 | IC50: 20.9 nM | gross animal toxicity (weight loss, major organ tissue degeneration) ([2]; 2 μmol/kg, TIW, 2 weeks): do not exhibit gross animal toxicity

CCCOCN(C(=O)[C@@H](NC(=O)[C@H]1CCCCN1C)[C@@H](C)CC)[C@H](C[C@@H](OC(C)=O)c1nc(C(=O)N[C@@H](Cc2ccc(O)cc2)C[C@H](C)C(=O)NNC(=O)OCCSSC[C@H](NC(=O)[C@H](CC(=O)O)NC(=O)[C@H](CC(=O)O)NC(=O)Cc2ccc(CNC(=O)NCCCC[C@H](NC(=O)N[C@@H](CCC(=O)O)C(=O)O)C(=O)O)cc2)C(=O)O)cs1)C(C)C [EC1718]
tumor growth in vivo compared to untreated animals [3]: efficacious in decreasing tumor growth | cures (cured/tested animals; no tumor growth during entire observation period) ([3]; 2 weeks): 1/7 | IC50: 17.9 nM | gross animal toxicity (weight loss, major organ tissue degeneration) ([2]; 2 μmol/kg, TIW, 2 weeks): do not exhibit gross animal toxicity

CCCCCOCN(C(=O)[C@@H](NC(=O)[C@H]1CCCCN1C)[C@@H](C)CC)[C@H](C[C@@H](OC(C)=O)c1nc(C(=O)N[C@@H](Cc2ccc(O)cc2)C[C@H](C)C(=O)NNC(=O)OCCSSC[C@H](NC(=O)[C@H](CC(=O)O)NC(=O)[C@H](CC(=O)O)NC(=O)Cc2ccc(CNC(=O)NCCCC[C@H](NC(=O)N[C@@H](CCC(=O)O)C(=O)O)C(=O)O)cc2)C(=O)O)cs1)C(C)C [EC1719]
tumor growth in vivo compared to untreated animals [3]: efficacious in decreasing tumor growth | cures (cured/tested animals; no tumor growth during entire observation period) ([3]; 2 weeks): 2/7 | IC50: 37.5 nM | gross animal toxicity (weight loss, major organ tissue degeneration) ([2]; 2 μmol/kg, TIW, 2 weeks): do not exhibit gross animal toxicity

CCCCCCOCN(C(=O)[C@@H](NC(=O)[C@H]1CCCCN1C)C(C)CC)[C@H](C[C@@H](OC(C)=O)c1nc(C(=O)N[C@@H](Cc2ccc(O)cc2)C[C@H](C)C(=O)NNC(=O)OCCSSC[C@H](NC(=O)[C@H](CC(=O)O)NC(=O)[C@H](CC(=O)O)NC(=O)Cc2ccc(CNC(=O)NCCCC[C@H](NC(=O)N[C@@H](CCC(=O)O)C(=O)O)C(=O)O)cc2)C(=O)O)cs1)C(C)C (stereo partly shown) [EC1720]
IC50 (LNCaP cells): 54.2 nM | gross animal toxicity (weight loss, major organ tissue degeneration) ([2]; 2 μmol/kg, TIW, 2 weeks): do not exhibit gross animal toxicity

CCCCCCCOCN(C(=O)[C@@H](NC(=O)[C@H]1CCCCN1C)C(C)CC)[C@H](C[C@@H](OC(C)=O)c1nc(C(=O)N[C@@H](Cc2ccc(O)cc2)C[C@H](C)C(=O)NNC(=O)OCCSSC[C@H](NC(=O)[C@H](CC(=O)O)NC(=O)[C@H](CC(=O)O)NC(=O)Cc2ccc(CNC(=O)NCCCC[C@H](NC(=O)N[C@@H](CCC(=O)O)C(=O)O)C(=O)O)cc2)C(=O)O)cs1)C(C)C (stereo partly shown) [EC1721]
IC50 (LNCaP cells): 65.6 nM | gross animal toxicity (weight loss, major organ tissue degeneration) ([2]; 2 μmol/kg, TIW, 2 weeks): do not exhibit gross animal toxicity

O=C(O)CC[C@H](CP(=O)(O)O)C(=O)O [PMPA, reference compound]
relative affinity for PSMA (PSMA): 1.0 ×

CC(=O)O[C@@]12CO[C@@H]1C[C@H](O)[C@@]1(C)C(=O)[C@H](O)C3=C(C)[C@@H](OC(=O)[C@H](O)[C@@H](NC(=O)OC(C)(C)C)c4ccccc4)C[C@@](O)([C@@H](OC(=O)c4ccccc4)[C@H]21)C3(C)C [docetaxel, reference compound]
anti-tumor activity [3, 5]: only modest anti-tumor activity | cures (cured/tested animals) [3, 5]: 1/4 | gross toxicity ([2]; 10 mg/kg, BIW, 2 weeks, MTD): high gross toxicity | weight loss ([2]; 10 mg/kg, BIW, 2 weeks, MTD): 18%

Source: patent publication US10912840B2, “Conjugates for treating diseases caused by PSMA expressing cells” (priority 2012, dated 2021)
